Test results reported in the kinase profiling compilation of Christmann-Franck et al. (2016).
Each block holds one compound with its values, some of them ahead of it.

What was measured:
Assay in all cases: radiometric filter-binding kinase assay, Kinase HotSpot
Conditions in all cases: compound 0.5 µM; ATP 10 µM
STK24 (human) = STK24 (human) (UniProt Q9Y6E0)
CDK6 CCND1 (human) = CDK6 CCND1 (human) (UniProt Q00534+P24385)
PRKCB1 (human) = PRKCB1 (human) (UniProt P05771)
CHUK (human) = CHUK (human) (UniProt O15111)
PAK3 (human) = PAK3 (human) (UniProt O75914)
MAPK10 (human) = MAPK10 (human) (UniProt P53779)
AXL (human) = AXL (human) (UniProt P30530)
MAPK11 (human) = MAPK11 (human) (UniProt Q15759)
FER (human) = FER (human) (UniProt P16591)
CHEK2 (human) = CHEK2 (human) (UniProt O96017)
ACVR1B (human) = ACVR1B (human) (UniProt P36896)
LCK (human) = LCK (human) (UniProt P06239)
ROS1 (human) = ROS1 (human) (UniProt P08922)
CAMK2B (human) = CAMK2B (human) (UniProt Q13554)
GRK6 (human) = GRK6 (human) (UniProt P43250)
MAPK14 (human) = MAPK14 (human) (UniProt Q16539)
ALK (human) = ALK (human) (UniProt Q9UM73)
CDK1 CCNA2 (human) = CDK1 CCNA2 (human) (UniProt P06493+P20248)
ROCK2 (human) = ROCK2 (human) (UniProt O75116)
MAPK1 (human) = MAPK1 (human) (UniProt P28482)
PDPK1 (human) = PDPK1 (human) (UniProt O15530)
MAPK12 (human) = MAPK12 (human) (UniProt P53778)
SRPK3 (human) = SRPK3 (human) (UniProt Q9UPE1)
EPHA7 (human) = EPHA7 (human) (UniProt Q15375)
PRKD3 (human) = PRKD3 (human) (UniProt O94806)
GRK5 (human) = GRK5 (human) (UniProt P34947)
CDK9 CCNK (human) = CDK9 CCNK (human) (UniProt O75909+P50750)
ERBB2 (human) = ERBB2 (human) (UniProt P04626)
PRKX (human) = PRKX (human) (UniProt P51817)
CDK2 CCNE1 (human) = CDK2 CCNE1 (human) (UniProt P24941+P24864)
PRKG2 (human) = PRKG2 (human) (UniProt Q13237)
FLT3 (human) = FLT3 (human) (UniProt P36888)
CSNK1E (human) = CSNK1E (human) (UniProt P49674)
TTK (human) = TTK (human) (UniProt P33981)
GRK4 (human) = GRK4 (human) (UniProt P32298)
DAPK1 (human) = DAPK1 (human) (UniProt P53355)
RPS6KA5 KD2 (human) = RPS6KA5 KD2 (human) (UniProt O75582)
FRK (human) = FRK (human) (UniProt P42685)
FYN (human) = FYN (human) (UniProt P06241)
RPS6KA6 KD1 KD2 (human) = RPS6KA6 KD1 KD2 (human) (UniProt Q9UK32)
GSG2 (human) = GSG2 (human) (UniProt Q8TF76)
MAPKAPK5 (human) = MAPKAPK5 (human) (UniProt Q8IW41)

Sequence of LCK (human) (P06239 whole entry, looked up): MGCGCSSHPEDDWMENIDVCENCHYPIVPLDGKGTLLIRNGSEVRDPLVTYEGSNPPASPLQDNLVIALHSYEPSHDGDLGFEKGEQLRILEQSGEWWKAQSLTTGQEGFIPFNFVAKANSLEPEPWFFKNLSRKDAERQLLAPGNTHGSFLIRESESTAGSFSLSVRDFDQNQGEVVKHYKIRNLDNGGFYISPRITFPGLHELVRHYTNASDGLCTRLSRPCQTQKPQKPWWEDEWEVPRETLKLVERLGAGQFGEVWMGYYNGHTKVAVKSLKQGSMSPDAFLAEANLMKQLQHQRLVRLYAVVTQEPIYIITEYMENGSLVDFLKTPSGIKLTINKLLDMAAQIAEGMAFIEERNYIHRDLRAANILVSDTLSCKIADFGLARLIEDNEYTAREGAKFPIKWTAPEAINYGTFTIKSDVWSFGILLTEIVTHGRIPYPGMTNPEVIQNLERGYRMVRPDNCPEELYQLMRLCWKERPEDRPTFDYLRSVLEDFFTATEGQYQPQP
Sequence of PRKG2 (human) (Q13237 whole entry, looked up): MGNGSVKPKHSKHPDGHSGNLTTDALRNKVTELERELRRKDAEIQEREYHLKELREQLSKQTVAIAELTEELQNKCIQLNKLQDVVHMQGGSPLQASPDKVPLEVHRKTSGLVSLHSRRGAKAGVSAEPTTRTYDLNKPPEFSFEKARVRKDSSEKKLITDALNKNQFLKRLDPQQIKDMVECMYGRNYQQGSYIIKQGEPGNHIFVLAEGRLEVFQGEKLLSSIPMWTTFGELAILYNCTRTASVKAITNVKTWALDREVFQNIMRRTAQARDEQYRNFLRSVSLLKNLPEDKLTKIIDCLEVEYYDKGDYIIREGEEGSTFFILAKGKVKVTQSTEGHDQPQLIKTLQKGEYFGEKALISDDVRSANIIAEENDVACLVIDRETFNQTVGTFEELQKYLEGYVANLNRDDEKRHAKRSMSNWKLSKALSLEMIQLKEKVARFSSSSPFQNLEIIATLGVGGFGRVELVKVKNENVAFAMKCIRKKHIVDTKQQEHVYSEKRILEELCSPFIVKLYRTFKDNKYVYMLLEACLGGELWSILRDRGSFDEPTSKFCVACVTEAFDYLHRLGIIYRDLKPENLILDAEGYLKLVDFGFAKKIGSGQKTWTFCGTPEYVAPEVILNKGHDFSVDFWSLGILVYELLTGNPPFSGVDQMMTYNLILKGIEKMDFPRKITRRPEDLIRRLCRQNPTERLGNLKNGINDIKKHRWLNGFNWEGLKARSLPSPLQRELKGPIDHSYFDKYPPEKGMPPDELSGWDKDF
Sequence of GSG2 (human) (Q8TF76 whole entry, looked up): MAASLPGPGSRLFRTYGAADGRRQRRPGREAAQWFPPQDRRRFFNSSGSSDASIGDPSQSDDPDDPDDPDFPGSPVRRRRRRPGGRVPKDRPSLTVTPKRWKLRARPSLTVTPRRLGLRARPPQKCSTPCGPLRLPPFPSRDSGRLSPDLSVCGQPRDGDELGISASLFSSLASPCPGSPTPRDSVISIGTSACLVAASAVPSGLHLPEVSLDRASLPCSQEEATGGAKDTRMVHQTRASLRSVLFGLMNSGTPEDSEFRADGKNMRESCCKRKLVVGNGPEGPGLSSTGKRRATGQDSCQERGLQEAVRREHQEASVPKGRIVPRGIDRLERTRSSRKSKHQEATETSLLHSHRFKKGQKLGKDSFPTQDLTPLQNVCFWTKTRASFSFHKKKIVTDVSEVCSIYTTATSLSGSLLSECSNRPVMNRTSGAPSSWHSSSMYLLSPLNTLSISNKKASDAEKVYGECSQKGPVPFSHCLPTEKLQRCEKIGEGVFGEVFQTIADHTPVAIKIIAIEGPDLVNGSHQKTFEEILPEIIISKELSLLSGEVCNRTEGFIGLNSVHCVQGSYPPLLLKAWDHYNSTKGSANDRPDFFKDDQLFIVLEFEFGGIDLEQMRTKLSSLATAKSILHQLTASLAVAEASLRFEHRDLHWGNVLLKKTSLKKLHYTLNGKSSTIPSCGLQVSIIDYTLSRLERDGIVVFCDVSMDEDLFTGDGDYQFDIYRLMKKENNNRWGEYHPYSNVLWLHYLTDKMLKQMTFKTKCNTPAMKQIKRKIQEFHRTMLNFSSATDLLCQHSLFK
Sequence of CAMK2B (human) (Q13554 whole entry, looked up): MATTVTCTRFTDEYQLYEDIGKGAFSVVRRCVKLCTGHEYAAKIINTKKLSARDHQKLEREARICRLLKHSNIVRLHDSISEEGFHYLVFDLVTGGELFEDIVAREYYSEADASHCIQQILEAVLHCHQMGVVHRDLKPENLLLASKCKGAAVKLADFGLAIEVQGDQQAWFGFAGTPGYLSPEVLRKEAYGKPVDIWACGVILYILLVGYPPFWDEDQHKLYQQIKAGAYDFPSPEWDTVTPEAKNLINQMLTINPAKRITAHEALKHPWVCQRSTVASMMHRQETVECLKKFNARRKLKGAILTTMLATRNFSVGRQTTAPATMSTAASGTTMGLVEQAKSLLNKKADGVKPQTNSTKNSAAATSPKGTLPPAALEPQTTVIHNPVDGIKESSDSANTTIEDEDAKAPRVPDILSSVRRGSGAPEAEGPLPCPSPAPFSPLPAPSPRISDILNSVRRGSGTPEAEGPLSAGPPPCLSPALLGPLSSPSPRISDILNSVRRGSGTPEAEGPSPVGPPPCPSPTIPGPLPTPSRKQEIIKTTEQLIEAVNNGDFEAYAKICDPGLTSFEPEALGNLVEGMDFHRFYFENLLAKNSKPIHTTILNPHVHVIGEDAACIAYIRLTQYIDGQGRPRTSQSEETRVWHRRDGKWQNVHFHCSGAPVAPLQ
Sequence of MAPK14 (human) (Q16539 whole entry, looked up): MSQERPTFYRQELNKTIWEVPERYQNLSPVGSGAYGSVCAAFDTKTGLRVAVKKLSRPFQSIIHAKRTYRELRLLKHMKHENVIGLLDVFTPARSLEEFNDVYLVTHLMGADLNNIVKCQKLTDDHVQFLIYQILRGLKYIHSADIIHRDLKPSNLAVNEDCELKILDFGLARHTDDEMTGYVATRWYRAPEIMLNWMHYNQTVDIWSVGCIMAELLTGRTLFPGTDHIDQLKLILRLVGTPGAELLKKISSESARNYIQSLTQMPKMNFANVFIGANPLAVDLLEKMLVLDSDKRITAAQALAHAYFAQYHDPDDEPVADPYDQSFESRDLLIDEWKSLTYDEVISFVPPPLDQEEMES
Sequence of GRK6 (human) (P43250 whole entry, looked up): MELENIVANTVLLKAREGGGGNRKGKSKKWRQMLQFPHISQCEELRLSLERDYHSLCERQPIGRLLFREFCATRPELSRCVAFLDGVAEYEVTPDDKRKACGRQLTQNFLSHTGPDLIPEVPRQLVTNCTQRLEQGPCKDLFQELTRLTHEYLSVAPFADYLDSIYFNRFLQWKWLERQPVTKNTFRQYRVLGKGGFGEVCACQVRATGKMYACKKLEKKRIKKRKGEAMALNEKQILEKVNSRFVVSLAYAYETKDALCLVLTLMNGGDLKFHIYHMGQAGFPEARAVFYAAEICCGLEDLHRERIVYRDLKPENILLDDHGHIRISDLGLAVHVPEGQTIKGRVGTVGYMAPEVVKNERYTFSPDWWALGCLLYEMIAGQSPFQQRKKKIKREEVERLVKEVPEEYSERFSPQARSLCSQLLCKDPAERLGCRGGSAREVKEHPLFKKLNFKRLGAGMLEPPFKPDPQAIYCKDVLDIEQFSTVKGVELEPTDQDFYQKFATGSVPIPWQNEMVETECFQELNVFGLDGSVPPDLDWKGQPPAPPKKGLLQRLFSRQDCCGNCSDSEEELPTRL
Sequence of CDK1 CCNA2 (human) (P06493 whole entry, looked up): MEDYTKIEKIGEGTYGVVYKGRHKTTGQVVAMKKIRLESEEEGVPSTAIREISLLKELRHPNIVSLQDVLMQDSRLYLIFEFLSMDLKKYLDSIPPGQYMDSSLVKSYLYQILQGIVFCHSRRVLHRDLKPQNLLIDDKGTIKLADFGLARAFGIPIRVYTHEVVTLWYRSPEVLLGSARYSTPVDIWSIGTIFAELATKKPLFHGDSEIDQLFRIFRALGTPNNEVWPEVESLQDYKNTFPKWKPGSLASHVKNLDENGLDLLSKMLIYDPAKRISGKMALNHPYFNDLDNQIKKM
Sequence of CDK1 CCNA2 (human) (P20248 whole entry, looked up): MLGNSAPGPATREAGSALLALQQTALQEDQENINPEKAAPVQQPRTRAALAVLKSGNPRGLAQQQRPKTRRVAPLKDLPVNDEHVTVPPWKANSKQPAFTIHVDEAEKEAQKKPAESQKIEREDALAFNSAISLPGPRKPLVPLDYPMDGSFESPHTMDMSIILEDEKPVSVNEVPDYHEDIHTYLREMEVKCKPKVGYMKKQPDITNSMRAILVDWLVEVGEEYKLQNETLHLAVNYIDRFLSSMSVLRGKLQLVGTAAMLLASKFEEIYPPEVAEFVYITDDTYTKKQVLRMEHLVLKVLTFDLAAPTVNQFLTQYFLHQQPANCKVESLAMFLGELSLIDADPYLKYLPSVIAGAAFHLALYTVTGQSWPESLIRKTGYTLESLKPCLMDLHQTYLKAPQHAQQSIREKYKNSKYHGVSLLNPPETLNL
Sequence of MAPK11 (human) (Q15759 whole entry, looked up): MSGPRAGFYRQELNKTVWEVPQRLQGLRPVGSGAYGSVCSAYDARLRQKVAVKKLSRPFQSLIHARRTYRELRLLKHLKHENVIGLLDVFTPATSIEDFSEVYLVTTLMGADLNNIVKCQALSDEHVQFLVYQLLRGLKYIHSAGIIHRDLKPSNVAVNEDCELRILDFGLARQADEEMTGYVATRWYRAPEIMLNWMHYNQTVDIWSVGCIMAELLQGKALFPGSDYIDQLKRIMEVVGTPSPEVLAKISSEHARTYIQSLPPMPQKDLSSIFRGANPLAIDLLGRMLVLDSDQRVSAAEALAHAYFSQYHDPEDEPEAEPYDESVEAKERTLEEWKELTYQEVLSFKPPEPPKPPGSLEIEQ

SMILES: O=C(CCCc1ccc(-c2ccccc2F)cc1)Nc1ccc(O)cc1
residual activity (STK24 (human)): 88.9%
residual activity (CDK6 CCND1 (human)): 98.2%
residual activity (PRKCB1 (human)): 93.4%
residual activity (CHUK (human)): 97.3%
residual activity (PAK3 (human)): 104%
residual activity (MAPK10 (human)): 100%
residual activity (AXL (human)): 91.4%
residual activity (MAPK11 (human)): 79.7%
residual activity (FER (human)): 103%
residual activity (CHEK2 (human)): 101%
residual activity (ACVR1B (human)): 95.9%
residual activity (LCK (human)): 95.5%
residual activity (ROS1 (human)): 98.4%
residual activity (CAMK2B (human)): 99.9%
residual activity (GRK6 (human)): 104%
residual activity (MAPK14 (human)): 89%
residual activity (ALK (human)): 97%
residual activity (CDK1 CCNA2 (human)): 93.7%
residual activity (ROCK2 (human)): 90.5%
residual activity (MAPK1 (human)): 69.9%
residual activity (PDPK1 (human)): 112%
residual activity (MAPK12 (human)): 104%
residual activity (SRPK3 (human)): 93.7%
residual activity (EPHA7 (human)): 104%
residual activity (PRKD3 (human)): 96.9%
residual activity (GRK5 (human)): 98.4%
residual activity (CDK9 CCNK (human)): 96.7%
residual activity (ERBB2 (human)): 101%
residual activity (PRKX (human)): 106%
residual activity (CDK2 CCNE1 (human)): 91.9%
residual activity (PRKG2 (human)): 102%
residual activity (FLT3 (human)): 104%
residual activity (CSNK1E (human)): 99.4%
residual activity (TTK (human)): 89.5%
residual activity (GRK4 (human)): 96.8%
residual activity (DAPK1 (human)): 110%
residual activity (RPS6KA5 KD2 (human)): 95.2%
residual activity (FRK (human)): 91.9%
residual activity (FYN (human)): 94.7%
residual activity (RPS6KA6 KD1 KD2 (human)): 105%
residual activity (GSG2 (human)): 94.7%
residual activity (MAPKAPK5 (human)): 91.4%

SMILES: Cc1nc2cc3nc(-c4cccs4)cnc3cc2n1C
residual activity (STK24 (human)): 103%
residual activity (CDK6 CCND1 (human)): 99.3%
residual activity (PRKCB1 (human)): 107%
residual activity (CHUK (human)): 96.2%
residual activity (PAK3 (human)): 98.8%
residual activity (MAPK10 (human)): 96.3%
residual activity (AXL (human)): 109%
residual activity (MAPK11 (human)): 101%
residual activity (FER (human)): 104%
residual activity (CHEK2 (human)): 94.6%
residual activity (ACVR1B (human)): 104%
residual activity (LCK (human)): 86.3%
residual activity (ROS1 (human)): 97.9%
residual activity (CAMK2B (human)): 101%
residual activity (GRK6 (human)): 104%
residual activity (MAPK14 (human)): 97.5%
residual activity (ALK (human)): 99.8%
residual activity (CDK1 CCNA2 (human)): 102%
residual activity (ROCK2 (human)): 107%
residual activity (MAPK1 (human)): 110%
residual activity (PDPK1 (human)): 106%
residual activity (MAPK12 (human)): 103%
residual activity (SRPK3 (human)): 96.6%
residual activity (EPHA7 (human)): 92.5%
residual activity (PRKD3 (human)): 97.1%
residual activity (GRK5 (human)): 108%
residual activity (CDK9 CCNK (human)): 110%
residual activity (ERBB2 (human)): 92%
residual activity (PRKX (human)): 106%
residual activity (CDK2 CCNE1 (human)): 91.4%
residual activity (PRKG2 (human)): 87.7%
residual activity (FLT3 (human)): 27.5%
residual activity (CSNK1E (human)): 94.5%
residual activity (TTK (human)): 92.6%
residual activity (GRK4 (human)): 104%
residual activity (DAPK1 (human)): 99.5%
residual activity (RPS6KA5 KD2 (human)): 109%
residual activity (FRK (human)): 98.9%
residual activity (FYN (human)): 107%
residual activity (RPS6KA6 KD1 KD2 (human)): 88.5%
residual activity (GSG2 (human)): 108%
residual activity (MAPKAPK5 (human)): 100%

residual activity (STK24 (human)): 62.6%
residual activity (CDK6 CCND1 (human)): 52.8%
residual activity (PRKCB1 (human)): 94.7%
residual activity (CHUK (human)): 97.6%
residual activity (PAK3 (human)): 92.6%
residual activity (MAPK10 (human)): 96.4%
residual activity (AXL (human)): 82.3%
residual activity (MAPK11 (human)): 92.9%
residual activity (FER (human)): 67.8%
residual activity (CHEK2 (human)): 32.3%
residual activity (ACVR1B (human)): 102%
residual activity (LCK (human)): 77.1%
residual activity (ROS1 (human)): 65.6%
residual activity (CAMK2B (human)): 87.5%
residual activity (GRK6 (human)): 89.4%
residual activity (MAPK14 (human)): 97.2%
residual activity (ALK (human)): 76.5%
residual activity (CDK1 CCNA2 (human)): 88.4%
residual activity (ROCK2 (human)): 98.5%
residual activity (MAPK1 (human)): 96.6%
residual activity (PDPK1 (human)): 93%
residual activity (MAPK12 (human)): 99.5%
residual activity (SRPK3 (human)): 97.5%
residual activity (EPHA7 (human)): 89.3%
residual activity (PRKD3 (human)): 88.4%
residual activity (GRK5 (human)): 103%
residual activity (CDK9 CCNK (human)): 59.7%
residual activity (ERBB2 (human)): 97.9%
residual activity (PRKX (human)): 88.8%
residual activity (CDK2 CCNE1 (human)): 31.3%
residual activity (PRKG2 (human)): 67.3%
residual activity (FLT3 (human)): 2.16%
residual activity (CSNK1E (human)): 46.1%
residual activity (TTK (human)): 68%
residual activity (GRK4 (human)): 98.3%
residual activity (DAPK1 (human)): 83.2%
residual activity (RPS6KA5 KD2 (human)): 67%
residual activity (FRK (human)): 73.3%
residual activity (FYN (human)): 43.3%
residual activity (RPS6KA6 KD1 KD2 (human)): 52.2%
residual activity (GSG2 (human)): 65.6%
residual activity (MAPKAPK5 (human)): 101%
SMILES: O=C1Nc2ccccc2/C1=C1\Nc2ccccc2\C1=N/O

residual activity (STK24 (human)): 51.9%
residual activity (CDK6 CCND1 (human)): 27.7%
residual activity (PRKCB1 (human)): 93.6%
residual activity (CHUK (human)): 96.6%
residual activity (PAK3 (human)): 73.8%
residual activity (MAPK10 (human)): 103%
residual activity (AXL (human)): 42.7%
residual activity (MAPK11 (human)): 95.2%
residual activity (FER (human)): 28.8%
residual activity (CHEK2 (human)): 27%
residual activity (ACVR1B (human)): 110%
residual activity (LCK (human)): 29.7%
residual activity (ROS1 (human)): 27%
residual activity (CAMK2B (human)): 57.9%
residual activity (GRK6 (human)): 53.1%
residual activity (MAPK14 (human)): 101%
residual activity (ALK (human)): 38.1%
residual activity (CDK1 CCNA2 (human)): 56.7%
residual activity (ROCK2 (human)): 91%
residual activity (MAPK1 (human)): 89.8%
residual activity (PDPK1 (human)): 83.3%
residual activity (MAPK12 (human)): 89.9%
residual activity (SRPK3 (human)): 59.5%
residual activity (EPHA7 (human)): 71.4%
residual activity (PRKD3 (human)): 68.1%
residual activity (GRK5 (human)): 84.6%
residual activity (CDK9 CCNK (human)): 33.2%
residual activity (ERBB2 (human)): 95.3%
residual activity (PRKX (human)): 84.2%
residual activity (CDK2 CCNE1 (human)): 23.1%
residual activity (PRKG2 (human)): 28.1%
residual activity (FLT3 (human)): 1.07%
residual activity (CSNK1E (human)): 43.2%
residual activity (TTK (human)): 46.1%
residual activity (GRK4 (human)): 74.7%
residual activity (DAPK1 (human)): 80.9%
residual activity (RPS6KA5 KD2 (human)): 37.5%
residual activity (FRK (human)): 49.7%
residual activity (FYN (human)): 13%
residual activity (RPS6KA6 KD1 KD2 (human)): 16.4%
residual activity (GSG2 (human)): 32.8%
residual activity (MAPKAPK5 (human)): 86.8%
SMILES: O=C1Nc2ccccc2/C1=C1/Nc2ccccc2/C1=N\OCCC(O)CO (stereo not drawn)
